Assay results from patent US11298314B2, “Injectable composition for localized fat reduction without pain, edema, and side effects, and method for preparing same” (AMI PHARM CO., LTD., priority 2017, dated 2022).
“Also recorded” adds a separate entry of the source. Where two headings read alike, the source gives them in different places.

Tests used:
[1] = test system: tissues of the injected area (rat paw); experiment: H&E staining histological test (inflammation) of injected rat paw; type: in vivo, Sprague Dawley rats; details: for Inflammation reaction: GCA 0.0, H&E of injected rat paw; for degree of inflammation (H&E) in words: rats sacrificed at 3 hours, injected paw
Experimental: The tissues of the injected area were dissected, fixed with 10% formalin, and then the specimen was prepared and images were captured using an optical microscope. The degree of inflammation was evaluated as follows.

[2] = test system: paw of the rats; experiment: Rat paw edema; type: in vivo, Sprague Dawley rats; details: for degree of edema, 1 hour after administration / degree of edema, 2 hours after administration / degree of edema, Immediately after administration: 0.1 ml into rat paw, swelling vs before injection; for degree of edema in words: 2 hours after administration, rat paw
Method in brief: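 Male Sprague Dawley rats (6 weeks old, 170–200 g) received 0.1 ml of PBS or test composition into the paw. Paw thickness measured by caliper before, immediately after, and 1 or 2 h post-injection; edema graded 0–4, with injection-site skin lesions photographed.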

[3] = test system: mouse paw; experiment: In vivo pain: moving distance and moving speed after paw injection; details: 100 ul into paw, 2 hours after administration, 5 minutes; listed as PPC 5.0%
Experimental: Specifically, 100 μl of each test material was injected into the floor of the paws of the rats, and edema was observed. […] The movement before and after injection of the test material was compared through distance and time. The movement before and after injection was measured using Noldus Video Traking system and compared with moving distance (FIG. 13A) and moving speed (FIG. 13B).
After the edema was confirmed to be the most at 2 hours after administration, the moving distance (cm) and the moving speed (cm/s) for 5 minutes were compared using Noldus Video Traking system.

[4] = Formulation stability of PPC injectable preparations: property, transparency, particle size, pH
[5] = test system: inguinal fat pad; details: 0.2 ml s.c. once into inguinal fat pad, 8 days post-injection
[6] = test system: Caspase 3 in 3T3-L1 adipocytes; experiment: Caspase 3 activity assay; type: cell-based; details: 0-48 hours; listed as PPC single composition
Experimental: The Caspase 3 activity assay was performed with the test materials to determine whether the cell death in the result of MTT assay was due to necrosis or apoptosis. The Caspase 3 specifically increases when apoptosis occurs and is a marker of apoptosis. […] The cells were then treated with 50 ul of cell lysis buffer (10 mM Tris-HCl, 10 mM NaH2PO4/NaHPO4, pH 7.5, 130 mM NaCl, 1% Triton X-100 and 10 mM sodium pyrophosphate) and left at 4° C. for […]. The supernatant was collected by centrifugation at 1000× rpm for 1 minute, and protein quantification was performed by BCA method. The 50 μl of reaction buffer (4 mM HEPES, pH 7.5, 10% glycerol, 2 mM dithiothreitol) and 0.5 μl of 4 mM DEVD-p-NA were added to each sample and reacted at 37° C. for 1 hour. Then wavelength was measured with a […] at 405 nm.

[7] = test system: sole of the rat paws; experiment: Measurement of skin lesion (erythema) on rat paw; type: in vivo, Sprague Dawley rats;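 further: grades − to ++++ mean no to extremely severe erythema versus before injection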
Method in brief: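 Male Sprague Dawley rats (6 weeks, 170–200 g) received 0.1 ml test composition or PBS injected into the paw. Paw thickness measured by caliper before, immediately after, and 1 or 2 h post-injection; sole lesions photographed and graded 0–4.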

[8] = test system: 3T3-L1 adipocytes; experiment: Lipolysis assay (glycerol release); type: cell-based; details: 48 hours; listed as PPC single
Experimental: The glycerol activity assay was performed with the test materials to determine whether the cell death in the MTT assay was due to necrosis or lipolysis. Glycerol is a specific marker that increases when fat breaks down. Abcam Lipolysis Assay Kit (Colorimetric) was used according to the manufacturer's manual, and the method of the test was as follows: […] And then the lysis was induced. […] After adding the glycerol assay complex (50 μl) thereto, the solution was incubated at room temperature for 30 minutes. Absorbance was measured at OD 570 (using standard curve for absolute determination).

[9] = PPC single composition 2.50% (w/v)
[10] = PPC single composition 5.00% (w/v)
[11] = PPC single composition 7.50% (w/v)
[12] = PPC single composition 10.0% (w/v)
[13] = PPC single composition 12.5% (w/v)
[14] = PPC single composition 15.0% (w/v)
[15] = PPC single composition 1.25% (w/v)

1,2-diacyl-sn-glycero-3-phosphocholine [PPC]
Inflammation reaction [1, 9]: − | Inflammation reaction [1, 10]: − | Inflammation reaction [1, 11]: − | Inflammation reaction [1, 12]: + | Inflammation reaction [1, 13]: + | Inflammation reaction [1, 14]: ++ | degree of inflammation (H&E) in words ([1]; listed as PPC 10.0%): Mild | degree of inflammation (H&E) in words ([1]; listed as PPC 12.5%): Mild | degree of inflammation (H&E) in words ([1]; listed as PPC 15.0%): moderate | degree of edema, 1 hour after administration ([2]; listed as PPC 1.25%): + (mild edema [+, (the degree of swelling was 1-20% compared to before the injection)]) | degree of edema, 2 hours after administration ([2]; listed as PPC 1.25%): + (mild edema [+, (the degree of swelling was 1-20% compared to before the injection)]) | degree of edema, Immediately after administration ([2]; listed as PPC 1.25%): + (mild edema [+, (the degree of swelling was 1-20% compared to before the injection)]) | degree of edema, 1 hour after administration ([2]; listed as PPC 2.50%): + (mild edema [+, (the degree of swelling was 1-20% compared to before the injection)]) | degree of edema, 2 hours after administration ([2]; listed as PPC 2.50%): + (mild edema [+, (the degree of swelling was 1-20% compared to before the injection)]) | degree of edema, Immediately after administration ([2]; listed as PPC 2.50%): + (mild edema [+, (the degree of swelling was 1-20% compared to before the injection)]) | degree of edema, 1 hour after administration ([2]; listed as PPC 5.00%): + (mild edema [+, (the degree of swelling was 1-20% compared to before the injection)]) | degree of edema, 2 hours after administration ([2]; listed as PPC 5.00%): + (mild edema [+, (the degree of swelling was 1-20% compared to before the injection)]) | degree of edema, Immediately after administration ([2]; listed as PPC 5.00%): + (mild edema [+, (the degree of swelling was 1-20% compared to before the injection)]) | degree of edema, 1 hour after administration ([2]; listed as PPC 7.50%): + (mild edema [+, (the degree of swelling was 1-20% compared to before the injection)]) | degree of edema, 2 hours after administration ([2]; listed as PPC 7.50%): + (mild edema [+, (the degree of swelling was 1-20% compared to before the injection)]) | degree of edema, Immediately after administration ([2]; listed as PPC 7.50%): ++ (moderate edema [++, (the degree of swelling was 20-40% compared to before the injection)]) | degree of edema, 1 hour after administration ([2]; listed as PPC 10.0%): + (mild edema [+, (the degree of swelling was 1-20% compared to before the injection)]) | degree of edema, 2 hours after administration ([2]; listed as PPC 10.0%): + (mild edema [+, (the degree of swelling was 1-20% compared to before the injection)]) | degree of edema, Immediately after administration ([2]; listed as PPC 10.0%): ++ (moderate edema [++, (the degree of swelling was 20-40% compared to before the injection)]) | degree of edema, 1 hour after administration ([2]; listed as PPC 12.5%): ++ (moderate edema [++, (the degree of swelling was 20-40% compared to before the injection)]) | degree of edema, 2 hours after administration ([2]; listed as PPC 12.5%): ++ (moderate edema [++, (the degree of swelling was 20-40% compared to before the injection)]) | degree of edema, Immediately after administration ([2]; listed as PPC 12.5%): ++ (moderate edema [++, (the degree of swelling was 20-40% compared to before the injection)]) | degree of edema, 1 hour after administration ([2]; listed as PPC 15.0%): ++ (moderate edema [++, (the degree of swelling was 20-40% compared to before the injection)]) | degree of edema, 2 hours after administration ([2]; listed as PPC 15.0%): ++ (moderate edema [++, (the degree of swelling was 20-40% compared to before the injection)]) | degree of edema, Immediately after administration ([2]; listed as PPC 15.0%): +++ (severe edema [+++, (the degree of swelling was 40-60% compared to before the injection)]) | degree of edema in words ([2]; listed as PPC 12.5%): moderate | degree of edema in words ([2]; listed as PPC 15.0%): moderate | change of moving distance and moving speed [3]: not changed or slightly increased; also recorded: wasn't changed or was slightly increased | formulation stability / property in words [4]: poor formulation stability | inflammation at the site of administration, dermal and epidermal tissues [5]: no inflammatory cells such as neutrophils | histological change of adipocytes in fat tissue ([5]; listed as PPC 5.0%): size of adipocytes was reduced | histological change of adipocytes in fat tissue ([5]; listed as PPC 15.0%): development of macrophages was confirmed around adipocytes | histological change of adipocytes in fat tissue ([5]; listed as PPC single composition): adipocyte apoptosis and degradation were induced in a concentration-dependent manner | caspase-3 activity [6]: time-dependent effect of inducing caspase-3 activity to a considerable level; also recorded: time-dependent effect of inducing caspase-3 activity to a considerable extent | grade of skin lesion (erythema), 1 hour after administration [7, 15]: − | grade of skin lesion (erythema), 2 hours after administration [7, 15]: − | grade of skin lesion (erythema), Immediately after administration [7, 15]: − | grade of skin lesion (erythema), 1 hour after administration [7, 9]: − | grade of skin lesion (erythema), 2 hours after administration [7, 9]: − | grade of skin lesion (erythema), Immediately after administration [7, 9]: − | grade of skin lesion (erythema), 1 hour after administration [7, 10]: − | grade of skin lesion (erythema), 2 hours after administration [7, 10]: − | grade of skin lesion (erythema), Immediately after administration [7, 10]: − | grade of skin lesion (erythema), 1 hour after administration [7, 11]: − | grade of skin lesion (erythema), 2 hours after administration [7, 11]: − | grade of skin lesion (erythema), Immediately after administration [7, 11]: − | grade of skin lesion (erythema), 1 hour after administration [7, 12]: − | grade of skin lesion (erythema), 2 hours after administration [7, 12]: − | grade of skin lesion (erythema), Immediately after administration [7, 12]: − | grade of skin lesion (erythema), 1 hour after administration [7, 13]: − | grade of skin lesion (erythema), 2 hours after administration [7, 13]: − | grade of skin lesion (erythema), Immediately after administration [7, 13]: − | grade of skin lesion (erythema), 1 hour after administration [7, 14]: − | grade of skin lesion (erythema), 2 hours after administration [7, 14]: − | grade of skin lesion (erythema), Immediately after administration [7, 14]: − | glycerol release / cytolytic activity [8]: slightly higher cytolytic activity than at 24 hours; also recorded: slightly higher cytolytic activity than that of 24 hours
